Data reported in US7732412B2, “Methods of treatment using novel LHRH antagonists having improved solubility properties” (Zentaris GmbH, priority 1999, dated 2010).
Numbered stars: 1 amine (or outer) side, 2 acyl side, 3 side chain; on linkers, the order of the positions; unused ones are H or OH. Square brackets hold non-standard residues; d marks the D form. Side chains are listed from the residue outwards. Peptide text beside a SMILES is read from it. * marks the point of attachment. NH(4-amidinophenyl) = N=C(N)c1ccc(N*)cc1; dPhe(4-Cl) = N[C@H](Cc1ccc(Cl)cc1)C(=O)O; d2Nal = N[C@H](Cc1ccc2ccccc2c1)C(=O)O; NMeY = CN[C@@H](Cc1ccc(O)cc1)C(=O)O; dCit = NC(=O)NCCC[C@@H](N)C(=O)O; d3Pal = N[C@H](Cc1cccnc1)C(=O)O; Suc = O=C(CCC(=O)[*:2])[*:1]

What was measured:
human LHRH receptor [1] = biological target: T1, human LHRH receptor (Homo sapiens, UniProt P30968); assay: functional assay for antagonistic activity, fos-Luc luciferase reporter gene, stimulation with 1 nM [D-Trp6] LHRH; type: cell-based; set-up: expressed in transfected cells; conditions: cells stimulated with 1 nM [D-Trp6] LHRH for 6 h; bracket = number of independent experiments
T1 sequence (P30968 1-328): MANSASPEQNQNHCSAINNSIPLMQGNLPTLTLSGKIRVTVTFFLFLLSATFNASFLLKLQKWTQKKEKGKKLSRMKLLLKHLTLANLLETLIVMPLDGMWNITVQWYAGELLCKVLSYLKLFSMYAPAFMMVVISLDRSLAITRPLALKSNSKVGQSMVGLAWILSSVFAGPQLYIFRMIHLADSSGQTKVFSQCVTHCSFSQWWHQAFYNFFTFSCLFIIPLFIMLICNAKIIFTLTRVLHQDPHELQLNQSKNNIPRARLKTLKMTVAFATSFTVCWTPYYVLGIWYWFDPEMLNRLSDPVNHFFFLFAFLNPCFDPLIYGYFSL
Protocol: The assay for the functional characterization of antagonistic analogs of LH-RH was carried out, with some modifications, as described in Beckers et al., “Characterization of gonadotropin-releasing hormone analogs based on a sensitive cellular luciferase reporter gene assay” (1997) Analyt. Biochem. 251, 17-23. The assay uses a reporter gene made by fusing the c-fos immediate-early gene promoter to a DNA sequence encoding luciferase (Luc). A recombinant cell line that expresses the human LH-RH. receptor is stably transfected with the fos-Luc reporter gene. Transcription of the fos-Luc fusion gene and synthesis of the Luc protein is induced in the cells in a dose-dependent manner by LH-RH and other LH-RH agonists that bind and signal through the human LH-RH receptor. Peptide LH-RH antagonists such as the compounds of the invention bind to cellular LH-RH receptors and inhibit this stimulation. The antagonistic potency (IC50) of peptide LH-RH antagonists as determined by the assay generally correlates well with the binding affinity (KD) of the LH-RH antagonists for LH-RH receptor as determined from ligand binding experiments.
Cells containing the fos-Luc reporter gene that express the human LH-RH receptor were cultured for 24 h in microtitre plates using DMEM with additives and 1% (v:v) FCS (10,000 cells per well). The cells were then stimulated with 1 nM [D-Trp^6] LHRH for 6 h. Peptide LH-RH antagonist compounds according to the invention were added before the stimulation, and the cells were lysed at the end for quantification of the cellular Luc activity. The calculation of the IC50 values from dose-effect curves was carried out by non-linear regression analysis using the Hill model (Programme EDX 2.0 from C. Grunwald, Arzneimittelwerk Dresden).
The quantification of the Luc activity was carried out in duplicate essentially as described (Promega Technical Bulletins #101/161) using the respective luciferase assay system (Promega E4030). Owing to addition of coenzyme A (CoA), an oxidation of luciferyl-CoA takes place with advantageous kinetics. After the removal of the culture medium from the microtitre plate, the cells were lysed by addition of 100 μl of lysis buffer (25 mM tris-phosphate pH 7.8, 2 mM dithiothreitol, 2 mM 1,2-diaminocyclohexane-N,N,N′,N′-tetraacetic acid (CDTA), 10% (v:v) glycerol, 1% (v:v) Triton X-100). After incubation at room temperature for 15 min, 10 μl of cell lysate were transferred into a white microtitre plate suitable for luminometric detection (Dynatech). The enzymatic reaction was initiated by addition of 50 μl of assay buffer (20 mM tricine pH 7.8, 1.07 mM (MgCO3)4Mg(OH)2, 2.67 mM MgSO4, 0.1 mM ethylene-diaminetetraacetic acid (EDTA), 33.3 mM dithiothreitol, 270 μM coenzyme A, 470 μM glow-worm (Photinus pyralis) luciferin, 530 μM rATPNa2). After one minute, the luminescence was determined for a total time of one second with a signal half-life of five minutes using the EG&G Berthold MicroLumat LB 96 P.

human LHRH receptor [2] = biological target: T1, human LHRH receptor; assay: receptor binding assay, displacement of [125I]-cetrorelix on intact cells; set-up: expressed in transfected cells; host or cells: LTK cells (stably transfected), intact cells; conditions: LTK cells expressing human LHRH receptor, 1 h at 37° C.; bracket = number of independent experiments; read-out: KD (binding affinity)
From the text: The compounds according to formula I of the invention were investigated for their receptor binding. The assay method closely followed the process described in Beckers et al., “Selection and characterization of mammalian cell lines with stable overexpression of human pituitary receptors for gonadoliberin (GnRH)” (1995) Eur. J. Biochem., 231, 535-543. Cetrorelix obtained according to the synthesis disclosed above was iodinated with [^125I] (Amersham; specific activity 80.5 Bq/fmol) using the IodoGen reagent (Pierce). The reaction mixture was purified by reverse-phase high-performance liquid chromatography with exchanged phases, monoiodinated cetrorelix being obtained without unlabelled peptide. In each case, about 80% of the [^125I]-cetrorelix was capable of specific receptor association.
The receptor binding assay was carried out under physiological conditions as described (Beckers et al., 1995) using intact cells. Subconfluent cultures of stably transfected LTK cells, which express the human LHRH receptor, were separated off by incubation in NaCl/Pi (137 mM NaCl, 2.7 mM KCl, 8.1 mM Na2HPO4, […])/1 mM EDTA and collected by centrifugation. The cell pellet was resuspended in binding buffer (DMEM without H2CO3, with 4.5 g/l of glucose, 10 mM Hepes pH 7.5, 0.5% (mass/volume) BSA, 1 g/l bacitracin, 0.1 g/l SBTI, 0.1% (mass/volume) NaN3). For displacement assays, 0.25×10^6 cells/100 μl were incubated with approximately 225 pM of the [^125I]-cetrorelix (specific activity 5-10×10^5 dpm/pmol) and various concentrations of unlabelled compound according to the invention as competitor. The cell suspension in 100 μl of binding medium was layered in 400 μl assay tubes over 200 μl of 84% by volume silicone oil (Merck Type 550)/16% by volume paraffin oil. […] Cell pellet and supernatants were then analysed by counting the y radiation. The amount of non-specifically bound material was determined at a final concentration of 1 μM with inclusion of unlabelled cetrorelix and was typically ≦10% of the total bound material. […]

## CC(=O)N[C@H](Cc1ccc2ccccc2c1)C(=O)N[C@H](Cc1ccc(Cl)cc1)C(=O)N[C@H](Cc1cccnc1)C(=O)N[C@@H](CO)C(=O)N(C)[C@@H](Cc1ccc(O)cc1)C(=O)N[C@H](CCCCNC(=O)CCC(=O)Nc1ccc(C(=N)N)cc1)C(=O)N[C@@H](CC(C)C)C(=O)N[C@@H](CCCNC(=N)N)C(=O)N1CCC[C@H]1C(=O)N[C@H](C)C(N)=O [Example 3, Ac-D-Nal(2)^1-D-Cpa^2-D-Pal(3)^3-ser^4-N-Me-Tyr^5-D-Lys(B)^6-Leu^7-Arg^8-Pro^9-D-Ala^10-NH2] (Ac-[d2Nal][dPhe(4-Cl)][d3Pal]S[NMeY][dK]([Suc-NH(4-amidinophenyl)])LRP[dA]-NH2)
Human LHRH receptor [1]
  IC50: 0.492 nM
Human LHRH receptor [2]
  Kd: 0.154 nM

## CC(=O)N[C@H](Cc1ccc2ccccc2c1)C(=O)N[C@H](Cc1ccc(Cl)cc1)C(=O)N[C@H](Cc1cccnc1)C(=O)N[C@@H](CO)C(=O)N[C@@H](Cc1ccc(O)cc1)C(=O)N[C@H](CCCNC(N)=O)C(=O)N[C@@H](CC(C)C)C(=O)N[C@@H](CCCNC(=N)N)C(=O)N1CCC[C@H]1C(=O)N[C@H](C)C(N)=O [cetrorelix, Ac-D-Nal(2)^1-D-Cpa^2-D-Pal(3)^3-Ser^4-Tyr^5-D-Cit^6-Leu^7-Arg^8-Pro^9-D-Ala^10-NH2, reference compound] (Ac-[d2Nal][dPhe(4-Cl)][d3Pal]SY[dCit]LRP[dA]-NH2)
Human LHRH receptor [1]
  IC50: 0.198 nM
Human LHRH receptor [2]
  Kd: 0.17 nM
